pIC50: −log10 of the molar value.
Key:
MDA-MB-468 = experiment: CTG assay of payloads, MDA-MB-468 cells; type: cell-based, human; details: Homo sapiens, MDA-MB-468; Table 1; 72 h, CellTiter-Glo
Description: (§1) The CTG assay is a method of determining the number of viable cells in culture based on quantitation of the ATP present, an indicator of metabolically active cells. The cell assay requires the addition of a single reagent, Cell Titer Glo, in which cells are lysed and generation of a luminescent signal is produced. The luminescent signal is proportional to the amount of ATP present. The amount of ATP is directly proportional to the number of cells present in culture. For this assay, cells were ensured to be in log-phase for either Jeko-1 or MDA-MB-468. Cells were transferred to 96 wells and treated with compounds in three-fold serial dilution starting from […] (10 points dilution), for 72 h. Cell viability was analyzed with CellTiter-Glo® Luminescent Cell Viability Assay (Promega) following manufactures' instruction. Percentage of viable cells in each compound concentration was determined by normalizing with the luminescence of vehicle control and plotted into percentage of viability versus dose response curve by nonlinear fit in GraphPad Prism software.

[1] = PAMPA (Parallel Artificial Membrane Permeability Assay); type: physicochemical; design: dose or concentration left out as unconfirmed
Description: PAMPA is a method which determines the permeability of substances from a donor compartment, through a lipid-infused artificial membrane into an acceptor compartment. See Ottaviani, G.; Martel, S.; Carrupt, P-A. “Parallel Artificial Membrane Permeability Assay: A New Membrane for the Fast Prediction of Passive Human Skin Permeability”, Journal of Medicinal Chemistry, 2006, 49 (13), 3948-3954). A multi-well microtitre plate is used for the donor and a membrane/acceptor compartment is placed on top; the whole assembly is commonly referred to as a “sandwich”. At the beginning of the test, the drug is added to the donor compartment, and the acceptor compartment is drug-free. After an incubation period which may include stirring, the sandwich is separated, and the amount of drug is measured in each compartment. Mass balance allows calculation of drug that remains in the membrane.
The PAMPA was performed by Pion Inc using the GIT-0 lipid and 5 mM donor solution in pH 5.0 and pH 7.4 PRISMA buffer (containing 0.05% DMSO). The higher PAMPA data has been associated with better bystander killing. (Ogitani Y.; Hagihara K.; Oitate, M.; Naito, H.; Agatsuma T. “Bystander killing effect of DS-8201a, a novel anti-human epidermal growth factor receptor 2 antibody-drug conjugate, in tumors with human epidermal growth factor receptor 2 heterogeneity” Cancer Science, 2016, 107 (7), 1039-1046).

Jeko-1 = experiment: CTG assay of payloads, Jeko-1 cells; type: cell-based, human; details: Homo sapiens, JeKo-1; Table 1; 72 h, CellTiter-Glo
Description: as §1

[2] = Human liver microsome clearance (HLM CL); type: in vitro ADME; design: CLint scaled / half-life: dose or concentration left out as unconfirmed; details: human, microsomes
Description: Working solution was prepared by adding 5 μL of compound and control stock solution (10 mM in dimethyl sulfoxide, DMSO) to 495 μL of acetonitrile (ACN) (intermediate solution concentration: 100 μM, 99% CAN and 1% DMSO. The appropriate concentrations of microsome working solutions were prepared in 100 mM potassium phosphate buffer. After reaction plates containing mixtures of compound and microsomes were pre-incubated at 37° C. for 10 min, […] of 2 mM of NADPH and 2 mM of MgCl2 solution was added to start the reaction. The final concentrations of incubation medium were as follows: microsome—0.5 mg protein/mL, test compound/control […], NADPH—1 mM, MgCl2—1 mM, acetonitrile 0.99%, DMSO 0.01%. Incubations were performed at 37° C. for 60 min. Samples were taken out at T0, T5, T15, T30, T45 and T60, which was added intermediately to the ice-cold stop solution (acetonitrile with 200 ng/mL of to butamide and labetalol as internal standard) (125 μl), shaken for 10 min, centrifuged at 4000 rpm for 20 min at 4° C. Analytical plates were analyzed by LCMS.
(§2) Human liver microsome clearance assay assess metabolism by the cytochrome P450 system (phase I enzymes). These enzymes oxidize substrates by incorporating oxygen atoms into hydrocarbons, thus causing the introduction of hydroxyl groups, or N- O- and S-dealkylation of substrates and forming more polar products easier to be cleared. Human hepatocyte clearance assay measures more broadly the overall cellular metabolism of the test compound (phase I and phase II enzyme pathways). Phase II enzymes catalyze the conjugation reaction of xenobiotic metabolites and charged species, such as glutathione, sulfate, glycine, or glucuronic acid to form even more polar compounds for easier clearance.

[3] = Human hepatocyte clearance (HHEP CL); type: in vitro ADME; design: CLint scaled / half-life: dose or concentration left out as unconfirmed; details: both sexes, human, hepatocytes
Description: Suspensions of human hepatocytes (from 10 mixed gender human donors, final concentration 0.5×10^6 cell/mL) in Williams' E medium were incubated for 90 min with a test compound (0.90% acetonitrile and 0.10% DMSO, final concentration […]) and positive controls (7-Ethoxycoumarin, 7-Hydroxycoumarin, 0.90% acetonitrile and 0.10% DMSO, final concentration […]), with constant shaking at about 600 rpm at 37° C. in an incubator at 5% CO2 and 95% humidity. The total volume of incubation was 200 μl. A sample ([…]) was taken out at T0, 15, 30, 60 and 90 min, which was added intermediately to the ice-cold stop solution (acetonitrile with 200 ng/mL of to butamide and labetalol as internal standard) (125 μl), and vortexed at 500 rpm for 10 min, centrifuged at 3220×g for 20 min at 4° C. Analytical plates were sealed and stored at 4° C. until LCMS analysis. Viability of hepatocytes at pre-incubation was determined to be 84.5%.
as §2

SMILES	pIC50 (MDA-MB-468)	Papp ([1]; pH 5) [×10⁻⁶ cm/s]	Papp ([1]; pH 7.4) [×10⁻⁶ cm/s]	pIC50 (Jeko-1)	CLint scaled [2] [mL/min/kg]	half-life [2] [min]	CLint scaled [3] [mL/min/kg]	half-life [3] [min]
CC[C@@]1(O)C(=O)OCc2c1cc1n(c2=O)Cc2c-1nc1cc(F)c(C)c3c1c2[C@@](C)(CO)CC3 (single isomer, unassigned) [Compound 3-28]	8.00	64	8.4	8.89	53.8	23	62.9	61
CC[C@@]1(O)C(=O)OCc2c1cc1n(c2=O)Cc2c-1nc1cc(F)c(C)c3c1c2[C@](C)(N1CC[C@H](O)C1)CC3 (single isomer, unassigned) [Compound 5-41]	7.04	53.5	6.6	7.94	92.5	13.5	49.8	77
CC[C@@]1(O)C(=O)OCc2c1cc1n(c2=O)Cc2c-1nc1cc(F)c(C)c3c1c2[C@](C)(CO)CC3 (single isomer, unassigned) [Compound 3-27]	7.73	62.2	8.5	8.68	128	9.7	62.4	62
CC[C@@]1(O)C(=O)OCc2c1cc1n(c2=O)Cc2c-1nc1cc(F)c(C)c3c1c2[C@H](CO)CC3 (single isomer, unassigned) [Compound 1-16]	8.14	40.4	8.5	9.10	44	28	33	117
CC[C@@]1(O)C(=O)OCc2c1cc1n(c2=O)Cc2c-1nc1cc(F)c(C)c3c1c2[C@](C)(N1CC[C@@H](O)C1)CC3 (single isomer, unassigned) [Compound 5-40]	7.16	52.2	6	8.00	238	5.2	102	38

Reference: patent US20260021193A1, “IMMUNOCONJUGATES AND METHODS” (Immunome, Inc., priority 2022, published 2026)
